Measured values from US20160051493A1, “METHODS OF TREATMENT OF KERATINOCYTE-DERIVED LESIONS” (THE TRUSTEES OF COLUMBIA UNIVERSITY IN THE CITY OF NEW YORK, priority 2012, published 2016).
pEC50: −log10 of the molar value. Read-outs that look alike come from different tables or passages of the source.

Legend:
[1] = test system: normal human epidermal keratinocytes; test: Ratiometric fura-2 live-cell calcium imaging of keratinocytes; assay type: cell-based; details: responders F340:F380 increase ≧20%
Protocol: (§1) Normal human keratinocytes were isolated from human foreskins by undergoing two enzymatic dissociation steps, first in dispase then in trypsin. Cells were cultured in EpiLife supplemented with human keratinocyte growth supplement (HKGS; Invitrogen). For all experiments with undifferentiated cells, keratinocytes were harvested or images at ˜75% confluency. Differentiation was induced by adding CaCl2 to the EpiLife media to reach a final [Ca2+] of 1.2 mM. Cells were typically cultured for 3 days under differentiation conditions before they were assayed. Keratinocytes were cultured for <5 passages. Purified Camphor (CAS #76-22-2), 2-APB (Tocris) or vehicle (1% EtOH)-containing media were used as indicated.
Human keratinocytes and SCC cells were washed in Ringer's solution (in mM: NaCl 140, KCl 5, D-glucose 10, HEPES 10, CaCl2 2, MgCl2 2, pH 7.2) and loaded with 5 μM fura-2AM and 1 μM pluronic (Invitrogen) for 30 minutes in the dark. During live-cell imaging, saturating concentrations of TRP agonists (10 mM Camphor, 100 μM 2-APB 1 μM Capsaicin, 300 μM Mustard oil or 3 μM 4αPDD) in Ringer's were used. Cells were imaged for 20 s to establish a baseline and then acutely treated with each agonist for 60 seconds. Imaging was performed on an Olympus IX81 microscope with a 20× (NA 0.17) objective and a Hamamatsu ORCA-R2 camera. 340- and 380-nm excitation and 540-nm emission filters were used to capture fura-2 fluorescence. Data are expressed as a ratio of fluorescent signals (340/380). All data acquisition was performed in MetaFluor. Data analysis was performed with custom algorithms in IgorPro. Cells with baseline levels ±2 SD above the mean were excluded from analysis as unhealthy. Responders were designated as cells whose 340/380 ratio was ≧20% above baseline.
TRP channels are selectively activated by endogenous and exogenous ligands at micromolar to millimolar concentrations. Since TRP channel activity increases over this range to allow graded Ca^2+ influx, receptor activity levels can be monitored by live-cell Ca^2+ imaging. A ratiometric calcium indicator (Fura-2) was employed to determine whether a panel of TRP-channel agonists elicited cytoplasmic calcium increases in human epidermal keratinocytes. (FIG. 1A-1E, FIG. 2A-2B, and Table 3).
Normal human keratinocytes were cultured in low-calcium media to promote proliferation or in 1.2-mM calcium media to induce differentiation. For live-cell imaging, keratinocytes were then washed and bathed in Ringer's solution containing 2 mM calcium so that calcium signals could be directly compared between cell populations.
In keratinocytes, increased intracellular calcium stimulates the terminal differentiation process. To determine whether camphor oil and its abundant constituents are directly bioactive on epithelial keratinocytes, a ratiometric Ca2+ indictor (Fura-2) was employed to test whether a panel of terpenes elicited cytoplasmic Ca2+ increases in undifferentiated human epidermal keratinocytes (FIG. 19A-19C). Keratinocytes were cultured according to our standard methods. For live-cell imaging, keratinocytes were bathed in Ringer's solution containing 2 mM Ca2+.

[2] = test system: normal human keratinocytes; test: Keratinocyte cell counts (DAPI), morphology and EdU proliferation assay after 24 h treatment; details: 24 hours
Protocol: as §1
Cells were treated with 2-APB or camphor for 24 hours at 37° C., exposed to EdU for 45 min, fixed and stained with DAPI for cell counting. EdU Click-It assays (Invitrogen) were used to assess cell-cycle entry. The cells were then fixed and stained with DAPI. Three fields per well were assayed via a 20× objective and there were 4 wells per treatment in each experiment. EdU=5-ethynyl-2′-deoxyuridine.
As Ca^2+ triggers the commitment switch from proliferation to differentiation in keratinocytes, it was reasoned that increasing intracellular calcium by incubating keratinocytes in TRP agonists might be sufficient to induce this cell-fate switch in low-calcium growth media. To test this hypothesis, normal human keratinocytes were cultured for 24 hours under low-Ca^2+ conditions in the presence of low (12.5 μM), half-maximal (50 μM) and saturating (100 μM) concentrations of 2-APB (FIG. 3A) or camphor (0-8 mM) (FIG. 3E). These TRP agonists were chosen because they reliably elicited intracellular calcium signaling in normal human keratinocytes (FIG. 1A-1E).
As camphor can activate both TRPV3 and TRPV1 channels, these experiments were repeated in the presence of a specific TRPV1 antagonist, AMG-9810 (Gavva et al., 2005).

[3] = test system: keratinocyte differentiation genes (LOR, FLG, IVL, TGM3); details: 50 μM, 24 hours
From the text: RNA was isolated using RNeasy Kit (Qiagen) and reversed transcribed. Four technical replicates were run for each primer set and cDNA sample using SYBR Green (Applied Biosystems) for quantitative readout. Complementary DNA was synthesized with oligo-dT primers and SuperScript III (Invitrogen). Primers were generated in Primer3. Primer pairs were optimized for qPCR and validated in control specimens. […] Melting curves were generated for all products to confirm a single amplicon for each product. To determine gene expression in each sample, cycle thresholds (CT) of the gene of interest were normalized to the reference gene GAPDH (ΔCT). Fold change was determined using the ΔΔCT method where vehicle or growth conditions were used as the calibrator (ΔΔCT=[(CT(target gene)−CT(reference gene)]−[CT(calibrator)]−CT(reference gene)]. All gene amplifications were performed in quadruplicate.

human keratinocytes = details: 50 μM, 7 days
Protocol: (§2) Organotypic human skin cultures and primary SCC lines were isolated from human SCCs and cultured as previously described (Bachelor et al., 2011). In brief, human fibroblasts were seeded in a collagen matrix on a 70 μm filter insert and incubated at 37° C. for 5-7 days. Human keratinocytes or SCC cells were then seeded on the apical surface of the fibroblast-collagen matrix and cultured for 2 days submerged in media to allow monolayer formation. The media was then removed from the apical surface (raising), exposing the keratinocytes or SCC cells to air. The cultures were maintained in this fashion for up to 14 days, and the media to the fibroblasts below was changed every 2-3 days. At the time of raising, 50 μM 2-APB or vehicle (1% EtOH) was added to the media.
Sections were fixed in 4% paraformaldehyde, paraffin embedded and sectioned at 8 μm. Hematoxylin and Eosin (H&E) stained sections were imaged with a bright field microscope equipped with a 10× (0.3 NA) and 20× (0.4 NA) objectives and an Axiocam color CCD camera (Zeiss AxioObserver.Z1). Epidermal thickness was assessed by measuring the nucleated layers with ImageJ software (NIH ImageJ). Number of invading cells was determined by counting the number of round nuclei below the basement membrane per 10× field (fibroblast nuclei are flatten and were excluded). […] Six random frames per section were quantified.

SCC-13 cells = details: 50 μM, 14 days
Protocol: as §2
(§3) Sections were fixed in 4% paraformaldehyde, paraffin embedded and sectioned at 8 μm. Hematoxylin and Eosin (H&E) stained sections were imaged with a bright field microscope equipped with a 10× (0.3 NA) and 20× (0.4 NA) objectives and an Axiocam color CCD camera (Zeiss AxioObserver.Z1). Epidermal thickness was assessed by measuring the nucleated layers with ImageJ software (NIH ImageJ). Number of invading cells was determined by counting the number of round nuclei below the basement membrane per 10× field (fibroblast nuclei are flatten and were excluded). Four non-serial paraffin sections per experiment were examined. Six random frames per section were quantified.
(§4) As TRP-channels are expressed in human SCC keratinocytes and TRP agonists arrest keratinocyte proliferation, it was reasoned that TRP agonists might be candidates for SCC-targeted therapy. To test this notion, organotypic human skin cultures were seeded with SCC cells.

SCC-39 cells = details: 50 μM, 14 days
Protocol: as §2, §3, §4

SCC-73 cells = details: 50 μM, 14 days
Protocol: as §2, §3, §4

TRPV3 = details: Activation, cited from earlier work
TRPC1 = TRPC1 (Homo sapiens, UniProt P48995); details: cited from earlier work
ORAI1 = ORAI1 (Homo sapiens, UniProt Q96D31); details: Inhibition; cited from earlier work
Chain of ORAI1 (Q96D31 whole entry, species assumed): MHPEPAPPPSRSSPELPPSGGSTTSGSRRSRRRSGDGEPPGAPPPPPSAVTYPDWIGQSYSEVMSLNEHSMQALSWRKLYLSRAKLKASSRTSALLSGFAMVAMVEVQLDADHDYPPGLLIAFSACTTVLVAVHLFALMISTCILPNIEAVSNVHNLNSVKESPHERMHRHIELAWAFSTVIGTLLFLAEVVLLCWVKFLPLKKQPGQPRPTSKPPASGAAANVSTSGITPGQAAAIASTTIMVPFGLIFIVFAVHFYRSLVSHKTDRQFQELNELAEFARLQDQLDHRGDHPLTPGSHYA

Chain of TRPC1 (P48995 whole entry, species assumed): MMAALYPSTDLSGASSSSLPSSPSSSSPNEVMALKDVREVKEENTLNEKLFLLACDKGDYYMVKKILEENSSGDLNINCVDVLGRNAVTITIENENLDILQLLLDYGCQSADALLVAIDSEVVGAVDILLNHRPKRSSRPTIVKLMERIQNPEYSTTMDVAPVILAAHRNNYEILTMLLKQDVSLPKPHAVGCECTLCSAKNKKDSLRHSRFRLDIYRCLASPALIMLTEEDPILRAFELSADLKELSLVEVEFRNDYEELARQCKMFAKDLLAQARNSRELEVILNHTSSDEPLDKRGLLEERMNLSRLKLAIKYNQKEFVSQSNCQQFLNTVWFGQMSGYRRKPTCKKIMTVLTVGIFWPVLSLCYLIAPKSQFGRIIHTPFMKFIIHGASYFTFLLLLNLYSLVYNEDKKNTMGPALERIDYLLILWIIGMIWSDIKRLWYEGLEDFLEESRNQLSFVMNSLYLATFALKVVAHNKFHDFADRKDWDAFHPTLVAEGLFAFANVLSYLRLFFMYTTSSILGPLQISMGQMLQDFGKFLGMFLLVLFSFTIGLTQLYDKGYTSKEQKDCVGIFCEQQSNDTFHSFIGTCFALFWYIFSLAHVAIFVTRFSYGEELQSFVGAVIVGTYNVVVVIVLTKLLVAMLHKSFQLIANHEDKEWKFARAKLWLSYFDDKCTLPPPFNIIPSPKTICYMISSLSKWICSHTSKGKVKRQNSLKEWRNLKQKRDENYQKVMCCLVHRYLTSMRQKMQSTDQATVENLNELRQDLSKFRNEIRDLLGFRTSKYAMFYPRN

NCCOB(c1ccccc1)c1ccccc1 [2-APB, 2-aminoethoxydiphenyl borate]
% Responders (differentiated) Mean ± SEM ([1]; differentiated in 1.2 mM Ca2+, 4αPDD 3 μM, camphor 10 mM, 2-APB 100 μM): 13.0 ± 7.2% | % Responders (undifferentiated) Mean ± SEM or SD ([1]; growth conditions, saturating agonist (4αPDD 3 μM, camphor 10 mM, 2-APB 100 μM, capsaicin 1 μM, mustard oil 300 μM), SD for capsaicin and mustard oil): 2.5 ± 0.9% | EdU incorporation ([2]; 12.5 μM): significant increased | cell population compared with vehicle-treated controls ([2]; 12.5 μM, low-Ca2+, one set of primary keratinocytes): 325+/−5% | EdU incorporation (cell-cycle arrest) ([2]; 50 μM): completely inhibited | cell number ([2]; 50 μM): slight reduction | keratinocyte morphology and cell numbers (cytotoxicity) ([2]; 100 μM): necrotic morphological changes and a loss of cell numbers | keratinocyte morphology ([2]; 12.5 or 50 μM): indistinguishable from vehicle-treated cells | concentration that arrests proliferation without inducing necrotic changes [2]: 50 µM | involucrin (IVL) expression [3]: little change | transglutaminase 3 (TGM3) expression [3]: little change | FLG transcript level induction versus vehicle ([3]; low-calcium growth media): more than 15 fold | LOR transcript level induction versus vehicle ([3]; low-calcium growth media): more than 15 fold | nucleated epidermal layers (human keratinocytes): one-third reduction | reduction of tumor formation above the dermis (SCC-13 cells): > 37% | tumor thickness (SCC-13 cells): reduced tumor thickness | inhibition of cell invasion versus vehicle-treated cultures (SCC-39 cells): > 93% | reduction of tumor formation above the dermis (SCC-39 cells): > 37% | tumor thickness (SCC-39 cells): reduced tumor thickness | invasive nature and growth of tumor cells (SCC-73 cells): dramatically reduced | tumor thickness (SCC-73 cells): reduced tumor thickness | Effective concentration Range (TRPV3): Range = 3.2-320 μM | pEC50 (TRPV3; read-out: Effective concentration EC50): 4.55 | Effective concentration Range (TRPC1; Activation): Range = 5-10 μM | Effective concentration Range (TRPC1; Inhibition): Range = 50-100 μM | Effective concentration Range (ORAI1): Range = 5-50 μM
